Ki and Ratio data for 20 compounds are collected here from ChEMBL document CHEMBL1125573 (J Med Chem, 1992).

The term Ki denotes a measure of affinity in units of concentration, obtained from inhibition or displacement. A lower Ki goes with higher affinity.

Test [1] concerns the target T1, D(2) dopamine receptor (Rattus norvegicus, UniProt P61169). Briefly: Binding affinity towards Dopamine receptor D2 by displacing [3H]spiperone.
For test [2], the target named is Serotonin 2 (5-HT2) receptor (Rattus norvegicus, UniProt P30994+P08909+P14842). Kind of test: The compound was tested in vitro for binding affinity towards 5-hydroxytryptamine 2 receptor by displacing [125]I-LSD radioligand. The format is protein assay.
Test [3] addresses T1, D(2) dopamine receptor. Briefly: Displacement of [3H]spiperone from dopamine receptor D2. In general terms: In a radioligand displacement assay an active substance lowers the binding of a labelled ligand.
In test [4] the target is Dopamine D2 receptor/Serotonin 2 (5-HT2) receptor (Rattus norvegicus) (UniProt P61169+P30994+P08909+P14842). Briefly: Relative binding affinity for dopamine D2 and 5-HT2 receptors. The format is protein assay.
Chain of Dopamine D2 receptor/Serotonin 2 (5-HT2) receptor (Rattus norvegicus) (P08909 whole entry, looked up): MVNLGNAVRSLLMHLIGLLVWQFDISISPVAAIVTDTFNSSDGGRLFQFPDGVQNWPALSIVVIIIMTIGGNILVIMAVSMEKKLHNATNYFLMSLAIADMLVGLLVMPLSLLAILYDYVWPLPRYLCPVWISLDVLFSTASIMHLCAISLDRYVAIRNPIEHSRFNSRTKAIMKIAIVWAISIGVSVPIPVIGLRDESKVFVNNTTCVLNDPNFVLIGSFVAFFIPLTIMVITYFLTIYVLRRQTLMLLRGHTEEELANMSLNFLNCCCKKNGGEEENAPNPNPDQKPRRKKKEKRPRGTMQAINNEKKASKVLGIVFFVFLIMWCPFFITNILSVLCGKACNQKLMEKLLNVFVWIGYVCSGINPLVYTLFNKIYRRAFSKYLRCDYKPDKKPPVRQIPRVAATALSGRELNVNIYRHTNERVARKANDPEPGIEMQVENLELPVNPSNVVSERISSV
Chain of Dopamine D2 receptor/Serotonin 2 (5-HT2) receptor (Rattus norvegicus) (P14842 whole entry, looked up): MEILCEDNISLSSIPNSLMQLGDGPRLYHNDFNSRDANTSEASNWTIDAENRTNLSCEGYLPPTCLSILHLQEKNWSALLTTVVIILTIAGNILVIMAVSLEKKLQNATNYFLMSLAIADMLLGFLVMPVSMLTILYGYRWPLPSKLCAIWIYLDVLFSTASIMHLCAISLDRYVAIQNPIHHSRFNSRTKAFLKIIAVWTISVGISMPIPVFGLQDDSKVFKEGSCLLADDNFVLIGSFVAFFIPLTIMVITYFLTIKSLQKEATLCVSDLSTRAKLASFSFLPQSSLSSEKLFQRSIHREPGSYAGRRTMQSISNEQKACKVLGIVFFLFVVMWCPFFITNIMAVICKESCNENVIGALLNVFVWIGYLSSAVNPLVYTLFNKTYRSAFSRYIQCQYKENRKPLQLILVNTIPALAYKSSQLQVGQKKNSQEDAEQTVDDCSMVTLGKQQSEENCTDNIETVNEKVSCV
Chain of Dopamine D2 receptor/Serotonin 2 (5-HT2) receptor (Rattus norvegicus) (P30994 whole entry, looked up): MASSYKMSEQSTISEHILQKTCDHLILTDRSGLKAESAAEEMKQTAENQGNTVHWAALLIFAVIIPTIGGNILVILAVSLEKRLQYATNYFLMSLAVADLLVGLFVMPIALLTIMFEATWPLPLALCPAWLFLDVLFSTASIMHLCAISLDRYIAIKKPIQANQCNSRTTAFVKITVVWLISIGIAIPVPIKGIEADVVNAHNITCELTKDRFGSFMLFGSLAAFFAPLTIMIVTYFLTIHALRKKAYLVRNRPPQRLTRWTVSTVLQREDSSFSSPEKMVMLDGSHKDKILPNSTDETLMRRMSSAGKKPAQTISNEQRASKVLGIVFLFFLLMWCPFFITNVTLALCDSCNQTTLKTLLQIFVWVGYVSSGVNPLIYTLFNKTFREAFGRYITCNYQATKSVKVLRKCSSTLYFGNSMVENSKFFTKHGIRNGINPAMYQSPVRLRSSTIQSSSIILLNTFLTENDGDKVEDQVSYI
Chain of Dopamine D2 receptor/Serotonin 2 (5-HT2) receptor (Rattus norvegicus) (P61169 whole entry, looked up): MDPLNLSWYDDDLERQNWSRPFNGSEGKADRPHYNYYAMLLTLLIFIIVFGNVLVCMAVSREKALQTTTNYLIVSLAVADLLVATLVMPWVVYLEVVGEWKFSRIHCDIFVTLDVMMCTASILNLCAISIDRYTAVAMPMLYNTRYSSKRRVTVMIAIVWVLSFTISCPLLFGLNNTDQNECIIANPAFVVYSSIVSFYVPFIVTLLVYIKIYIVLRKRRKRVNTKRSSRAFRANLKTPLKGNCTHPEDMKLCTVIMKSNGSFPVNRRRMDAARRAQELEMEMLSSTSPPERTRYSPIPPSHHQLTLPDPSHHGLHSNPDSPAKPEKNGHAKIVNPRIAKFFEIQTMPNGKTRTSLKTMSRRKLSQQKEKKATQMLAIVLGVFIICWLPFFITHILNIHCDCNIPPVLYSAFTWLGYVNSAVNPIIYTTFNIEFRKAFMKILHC

T1 sequence (P61169 whole entry): as the sequence (P61169 whole entry, looked up) above

Take `COc1ccc(CN2CN(c3ccccc3)C3(CCN(CCCC(=O)c4ccc(F)cc4)CC3)C2=O)cc1`: the Ki is 0.087 nM at D(2) dopamine receptor [1] and 12 nM in test [2].
Turning to `O=C(CCCN1CCC2(CC1)C(=O)N(Cc1ccccc1)CN2c1ccccc1)c1ccc(F)cc1`, the Ki came to 0.023 nM at D(2) dopamine receptor [3] and 3.2 nM in test [2]. Further, the Ratio in test [4] was 140.
Turning to `O=C(CCCN1CCC2(CC1)C(=O)N(Cc1ccccc1[N+](=O)[O-])CN2c1ccccc1)c1ccc(F)cc1`, the Ki is 0.12 nM at D(2) dopamine receptor [1] and 0.68 nM in test [2].
On to `O=C(CCCN1CCC2(CC1)C(=O)N(Cc1ccccc1I)CN2c1ccccc1)c1ccc(F)cc1`, for which the Ki on D(2) dopamine receptor [1] came out at 0.063 nM; in test [2], 19 nM.
Regarding `Cc1ccc(CN2CN(c3ccccc3)C3(CCN(CCCC(=O)c4ccc(F)cc4)CC3)C2=O)cc1`, the values for the Ki (at D(2) dopamine receptor [1]; in test [2]) were 0.067 nM and 37 nM, respectively.
Turning to `CCCN1CN(c2ccccc2)C2(CCN(CCCC(=O)c3ccc(F)cc3)CC2)C1=O`, the Ki on D(2) dopamine receptor [3] turned out to be 0.029 nM; in test [2], 0.096 nM. For the same compound, the Ratio in test [4] was determined as 3.3.
Consider `O=C(CCCN1CCC2(CC1)C(=O)N(Cc1ccccc1F)CN2c1ccccc1)c1ccc(F)cc1`, for which the Ki at D(2) dopamine receptor [3] worked out at 0.043 nM; in test [2], 4.4 nM. The Ratio in test [4] amounted to 100.
Take `COc1ccccc1CN1CN(c2ccccc2)C2(CCN(CCCC(=O)c3ccc(F)cc3)CC2)C1=O`: the Ki at D(2) dopamine receptor [1] was 0.047 nM; in test [2], 1.9 nM.
Regarding `O=C(CCCN1CCC2(CC1)C(=O)N(Cc1ccc(F)cc1)CN2c1ccccc1)c1ccc(F)cc1`, the Ki amounted to 0.069 nM on D(2) dopamine receptor [3] and 21 nM in test [2]. Moreover, in test [4], the Ratio was 300.
For `CCCCN1CN(c2ccccc2)C2(CCN(CCCC(=O)c3ccc(F)cc3)CC2)C1=O`, the Ki on D(2) dopamine receptor [3] is 0.036 nM; in test [2], 0.41 nM. Besides, the Ratio in test [4] was 11.
Regarding `O=C(CCCN1CCC2(CC1)C(=O)N(Cc1ccc([N+](=O)[O-])cc1)CN2c1ccccc1)c1ccc(F)cc1`, the values for the Ki (at D(2) dopamine receptor [1]; in test [2]) were 0.119 nM and 14 nM, respectively.
Consider `CCCCCN1CN(c2ccccc2)C2(CCN(CCCC(=O)c3ccc(F)cc3)CC2)C1=O`, for which the Ki was 0.062 nM at D(2) dopamine receptor [3] and 1.1 nM in test [2]. For the same compound, in test [4], the Ratio is 18.
Taken in the same sequence, the figures for `O=C(CCCN1CCC2(CC1)C(=O)N(Cc1cccc(F)c1)CN2c1ccccc1)c1ccc(F)cc1` were 0.023 nM, 5.3 nM and 230.
Consider `CN1CN(c2ccccc2)C2(CCN(CCCC(=O)c3ccc(F)cc3)CC2)C1=O` [MESPIPERONE], for which the Ki on D(2) dopamine receptor [1] turned out to be 0.118 nM; in test [2], 0.55 nM.
Regarding `CC(C)CN1CN(c2ccccc2)C2(CCN(CCCC(=O)c3ccc(F)cc3)CC2)C1=O`, the results for the inhibition constant Ki (at D(2) dopamine receptor [3]; in test [2]) were 0.039 nM and 0.13 nM, respectively. In addition, the Ratio in test [4] was 3.3.
On to `CC(C)CCN1CN(c2ccccc2)C2(CCN(CCCC(=O)c3ccc(F)cc3)CC2)C1=O`, for which the Ki on D(2) dopamine receptor [3] turned out to be 0.063 nM; in test [2], 1.3 nM. In test [4], the Ratio worked out at 21.
Consider `Cc1ccccc1CN1CN(c2ccccc2)C2(CCN(CCCC(=O)c3ccc(F)cc3)CC2)C1=O`, for which the results for the Ki (on D(2) dopamine receptor [3]; in test [2]) were 0.033 nM and 9.6 nM, respectively. The Ratio in test [4] was 290.
In the case of `O=C(CCCN1CCC2(CC1)C(=O)N(Cc1ccc(I)cc1)CN2c1ccccc1)c1ccc(F)cc1`, the Ki was 0.213 nM at D(2) dopamine receptor [1] and 89 nM in test [2].
Regarding `O=C(CCCN1CCC2(CC1)C(=O)N(CCc1ccccc1)CN2c1ccccc1)c1ccc(F)cc1`, the Ki on D(2) dopamine receptor [3] amounted to 0.035 nM; in test [2], 1 nM. In test [4], the Ratio was found to be 29.
As for `CCN1CN(c2ccccc2)C2(CCN(CCCC(=O)c3ccc(F)cc3)CC2)C1=O`, the Ki at D(2) dopamine receptor [1] was 0.057 nM; in test [2] it was 0.31 nM.
